Test system: patient derived xenografts (PDXs) of colorectal tumors
Test: Therapy experiments in patient derived xenograft models, treated to control (T/C) ratio of tumor size
Assay type: in vivo, NMRI: nu/nu mice
Conditions: monotherapy, 67 PDX models
Description: Transplantation of 239 human, primary colorectal tumors of patients with colorectal cancer of all four UICC stages was performed onto nude mice. […] For each drug and each of the 67 xenograft models, five mice were treated in addition to five control animals (335 animals plus 335 controls per drug). At the end of the therapy experiment, the median diameter of the tumors (C) of the 5 control animals is devided by the median diameter of the five treated animals (T).
Shortly after surgery, original colorectal cancer tumor pieces were shipped in gentamicin containing RPMI-1640 medium to the mouse facility. After arrival at the mouse facilities they were transplanted onto immunodeficient mice and were further passaged until a stably grown tumor xenografts has developed.
Surgical colorectal tumor samples were cut into pieces of 3 to 4 mm and transplanted within 30 min s.c. to 3 to 6 immunodeficient NOD/SCID mice (Taconic); the gender of the mice was chosen according to the donor patient. Additional tissue samples were immediately snap-frozen and stored at −80° C. for genetic, genomic, and protein analyses. […] Mice were observed daily for tumor growth. At a size of about 1 cm3, tumors were removed and passaged to naive NMRI: nu/nu mice (Charles River) for chemosensitivity testing. Tumors were passaged no more than 10 times. Numerous samples from early passages were stored in the tissue bank in liquid nitrogen and used for further experiments. […] All xenografts as well as the corresponding primary tumors were subjected to histological evaluation using snap-frozen, haematoxylin-eosin-stained tissue sections.
Each of the 75 tumors was transplanted onto 20 mice (5 controls and 5 for each drug).
The chemotherapeutic response of the passagable tumors was determined in male NMRI: nu/nu mice. For that purpose, one tumor fragment each was transplanted s.c. to a number of mice. At palpable tumor size (50-100 mm^3), 6 to 8 mice each were randomized to treatment and control groups and treatment was initiated. […] Doses and schedules were chosen according to previous experience in animal experiments and represent the maximum tolerated or efficient doses. The injection volume was 0.2 ml/20 g body weight.
Tumor size was measured in two dimensions twice weekly with a caliper-like instrument. Individual tumor volumes (V) were calculated by the formula: V=(length+[width]2)/2 and related to the values at the first day of treatment (relative tumor volume). Median treated to control (T/C) values of relative tumor volume were used for the evaluation of each treatment modality and categorized according to scores (− to ++++;). The mean tumor doubling time of each xenograft model was calculated by comparing the size between 2- and 4-fold relative tumor volumes. Statistical analyses were done with the U test (Mann and Whitney) with P<0.05. The body weight of mice was determined every 3 to 4 days and the change in body weight was taken as variable for tolerability.

**Q.** For “Bevacizumab: humanized monoclonal antibody that binds to vascular endothelial growth factor A (VEGF-A)”, which “Nonresponder PDXs” value (T/C</=25 (T/C<25)) is on record?
**A.** 56

**Q.** What about the “Responder PDXs” value (T/C</=30, tumor growth inhibited by at least 70%) of the same substance?
**A.** 13

**Q.** What about the “Nonresponder PDXs” value (T/C</=30) of the same substance?
**A.** 54

**Q.** And the “Responder PDXs” value (T/C</=35 (T/C<35), tumor growth inhibited by at least 65%)?
**A.** 19

**Q.** What about the “Nonresponder PDXs” value (T/C</=35 (T/C<35)) of the same substance?
**A.** 48
